According to patent US12398111B2, “Triazine compounds and pharmaceutical use thereof” (Japan Tobacco Inc., priority 2014, dated 2025):

These compounds were tested against T1, human mPGES-1 (Homo sapiens, UniProt O14684) (assay: Evaluation of human mPGES-1 enzyme inhibitory activity (PGE2 measured by HTRF, microsome fraction of CHO-S cells expressing human mPGES-1)). Conditions: IC50 value; microsome fraction of CHO-S cells expressing human mPGES-1, PGE2 by HTRF.
T1 construct: made in house; host or cells: FreeStyle CHO-S cells (Chinese hamster ovary), transient transfection with pcDNA3.1(+)/human mPGES-1; microsome fraction used
T1 sequence (O14684 1-152): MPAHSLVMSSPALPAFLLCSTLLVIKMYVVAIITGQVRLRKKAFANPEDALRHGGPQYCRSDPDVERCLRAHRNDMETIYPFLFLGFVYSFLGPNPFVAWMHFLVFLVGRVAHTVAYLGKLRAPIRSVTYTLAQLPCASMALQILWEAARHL
Type: biochemical
Method in brief: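 Enzyme source: microsomes from CHO-S cells transfected with human mPGES-1 and cultured 48 hr, diluted to 5 μg/mL protein in reduced GSH (12.5 mmol/L KPB solution). Test articles were in 0.1 mol/L potassium phosphate pH 7.4, final DMSO 2% (v/v). PGE2 formed was quantified by HTRF.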

Row | Compound | IC50 [nM]
1 | CC(C)Cc1ccc(-c2nc(O)nc(-c3cc(CNC(=O)C(C)(C)C)ccc3Cl)n2)cc1 [Example 1-51, N-{4-chloro-3-[4-(4-isobutylphenyl)-6-hydroxy-1,3,5-triazin-2-yl]benzyl}-2,2-dimethylpropionamide] | 1
2 | Cc1ccc(-c2nc(O)nc(-c3cc(CNC(=O)C(C)(C)C(F)(F)F)ccc3Cl)n2)cc1F [Example 1-81, N-{4-chloro-3-[4-(3-fluoro-4-methylphenyl)-6-hydroxy-1,3,5-triazin-2-yl]benzyl}-3,3,3-trifluoro-2,2-dimethylpropionamide] | 0.6
3 | CC(C)c1ccc(-c2nc(O)nc(-c3cc(CNC(=O)C(C)(C)C(F)(F)F)ccc3Cl)n2)cc1 [Example 1-98, N-{4-chloro-3-[4-hydroxy-6-(4-isopropylphenyl)-1,3,5-triazin-2-yl]benzyl}-3,3,3-trifluoro-2,2-dimethylpropionamide] | 0.9
4 | CC(C)COc1ccc(-c2nc(O)nc(-c3cc(CNC(=O)C(C)(C)C(F)(F)F)ccc3Cl)n2)cc1 [Example 1-109, N-{4-chloro-3-[4-hydroxy-6-(4-isobutoxyphenyl)-1,3,5-triazin-2-yl]benzyl}-3,3,3-trifluoro-2,2-dimethylpropionamide] | 2.5
5 | CCCOc1ccc(-c2nc(O)nc(-c3cc(CNC(=O)C(C)(C)C(F)(F)F)ccc3Cl)n2)cc1 [Example 1-122, N-{4-chloro-3-[4-hydroxy-6-(4-propoxyphenyl)-1,3,5-triazin-2-yl]benzyl}-3,3,3-trifluoro-2,2-dimethylpropionamide] | 1.3
6 | CC1(COc2ccc(-c3nc(O)nc(-c4cc(CNC(=O)C(C)(C)C(F)(F)F)ccc4Cl)n3)cc2)CC1 [Example 1-128, N-(4-chloro-3-{4-hydroxy-6-[4-(1-methylcyclopropylmethoxy)phenyl]-1,3,5-triazin-2-yl}benzyl)-3,3,3-trifluoro-2,2-dimethylpropionamide] | 1.3
7 | Cc1ccc(-c2nc(O)nc(-c3cc(CNC(=O)C(C)(C)C(F)(F)F)ccc3Cl)n2)cc1Cl [Example 1-129, N-{4-chloro-3-[4-(3-chloro-4-methylphenyl)-6-hydroxy-1,3,5-triazin-2-yl]benzyl}-3,3,3-trifluoro-2,2-dimethylpropionamide] | 0.6
8 | Oc1cccc(COc2cccc(C(F)(F)F)c2-c2nc(O)nc(-c3ccc(C#Cc4ccccc4)cc3)n2)n1 [Example 2-119] | 1.8
9 | COc1ccnc(COc2cccc(C(F)(F)F)c2-c2nc(O)nc(-c3ccc(C#Cc4ccccc4)cc3)n2)c1 [Example 2-120] | 4.1
10 | Oc1nc(-c2ccc(C#Cc3ccccc3)cc2)nc(-c2c(OCc3cccc(C(F)(F)F)n3)cccc2C(F)(F)F)n1 [Example 2-121] | 14
11 | Oc1nc(-c2ccc(C#Cc3ccccc3)cc2)nc(-c2c(OCc3cc(C(F)(F)F)ccn3)cccc2C(F)(F)F)n1 [Example 2-122] | 15
12 | Cc1cccc(COc2cccc(C(F)(F)F)c2-c2nc(O)nc(-c3ccc(C#Cc4cccc(Cl)c4)cc3)n2)n1 [Example 2-123] | 12
13 | Cc1cccc(COc2cccc(C(F)(F)F)c2-c2nc(O)nc(-c3ccc(C#Cc4ccc(Cl)cc4)cc3)n2)n1 [Example 2-124] | 12
14 | COc1cccc(C#Cc2ccc(-c3nc(O)nc(-c4c(OCc5cccc(C)n5)cccc4C(F)(F)F)n3)cc2)c1 [Example 2-125] | 4.3
15 | COc1ccc(C#Cc2ccc(-c3nc(O)nc(-c4c(OCc5cccc(C)n5)cccc4C(F)(F)F)n3)cc2)cc1 [Example 2-126] | 4.6
16 | Cc1ccc(C#Cc2ccc(-c3nc(O)nc(-c4c(OCc5cccc(C)n5)cccc4C(F)(F)F)n3)cc2)cc1 [Example 2-127] | 6.2
17 | CCc1ccc(C#Cc2ccc(-c3nc(O)nc(-c4c(OCc5cccc(C)n5)cccc4C(F)(F)F)n3)cc2)cc1 [Example 2-128] | 13
18 | Cc1cccc(COc2cccc(C(F)(F)F)c2-c2nc(O)nc(-c3ccc(C#Cc4ccccc4OC(F)(F)F)cc3)n2)n1 [Example 2-129] | 32
19 | Cc1cccc(COc2cccc(C(F)(F)F)c2-c2nc(O)nc(-c3ccc(C#Cc4ccc(OC(F)(F)F)cc4)cc3)n2)n1 [Example 2-130] | 35
20 | Cc1cc(C)c(-c2nc(O)nc(-c3ccc(C(F)(F)F)cc3)n2)c(C)c1 [Example 3-1] | 484
21 | COc1c(CO)ccc(Cl)c1-c1nc(O)nc(-c2ccc(C(F)(F)F)cc2)n1 [Example 3-2] | 148

Row | Compound | IC50 [nM]
22 | COc1c(C)ccc(Cl)c1-c1nc(O)nc(-c2ccc(C(F)(F)F)cc2)n1 [Example 3-3] | 141
23 | CCOc1c(C)ccc(Cl)c1-c1nc(O)nc(-c2ccc(C(F)(F)F)cc2)n1 [Example 3-4] | 202
24 | COc1c(CNC(C)=O)ccc(Cl)c1-c1nc(O)nc(-c2ccc(C(F)(F)F)cc2)n1 [Example 3-5] | 341
25 | Cc1c(CO)ccc(Cl)c1-c1nc(O)nc(-c2ccc(C(F)(F)F)cc2)n1 [Example 3-6] | 56
26 | CC(=O)NCc1ccc(Cl)c(-c2nc(O)nc(-c3ccc(C(F)(F)F)cc3)n2)c1C [Example 3-7] | 19
27 | Cc1c(CNC(=O)C(C)(C)C)ccc(Cl)c1-c1nc(O)nc(-c2ccc(C(F)(F)F)cc2)n1 [Example 3-8] | 1
28 | Cc1ccc(Cl)c(-c2nc(O)nc(-c3ccc(C(F)(F)F)cc3)n2)c1OCCO [Example 3-9] | 776
29 | Cc1c(CNS(=O)(=O)C(C)(C)C)ccc(Cl)c1-c1nc(O)nc(-c2ccc(C(F)(F)F)cc2)n1 [Example 3-10] | 16
30 | COc1ccc(F)c(Cl)c1-c1nc(O)nc(-c2ccc(C(F)(F)F)cc2)n1 [Example 3-11] | 93
31 | COc1ccc(F)c(Cl)c1-c1nc(O)nc(-c2ccc(OCc3ccccc3)cc2)n1 [Example 3-12] | 28
32 | Cc1ccc(Cl)c(-c2nc(O)nc(-c3ccc(C(F)(F)F)cc3)n2)c1OCc1ccccn1 [Example 3-13] | 34
33 | Cc1c(CNC(=O)C(C)(C)C(F)(F)F)ccc(Cl)c1-c1nc(O)nc(-c2ccc(CC(C)C)cc2)n1 [Example 3-14] | 2
34 | CCOC(=O)NCc1ccc(Cl)c(-c2nc(O)nc(-c3ccc(CC(C)C)cc3)n2)c1C [Example 3-15] | 5.1
35 | CCCc1cccc(-c2nc(O)nc(-c3cc(CNC(=O)C(C)(C)C(F)(F)F)c(C)cc3Cl)n2)c1 [Example 3-16] | 2.1
36 | Cc1cc(Cl)c(-c2nc(O)nc(-c3ccc(OCC4CC4)cc3)n2)cc1CNC(=O)C(C)(C)C(F)(F)F [Example 3-17] | 0.8
37 | Cc1c(CNC(=O)C(C)(C)C(F)(F)F)ccc(Cl)c1-c1nc(O)nc(-c2ccc(OCC(C)C)cc2)n1 [Example 3-18] | 1.2
38 | Cc1cc(Cl)c(-c2nc(O)nc(-c3ccc(OCC4CC4)cc3)n2)cc1C(=O)O [Example 3-19] | 24600
39 | Cc1cc(Cl)c(-c2nc(O)nc(-c3ccc(OCC4CC4)cc3)n2)cc1C(N)=O [Example 3-20] | 1100
40 | CNC(=O)c1cc(-c2nc(O)nc(-c3ccc(OCC4CC4)cc3)n2)c(Cl)cc1C [Example 3-21] | 611
41 | Cc1cc(Cl)c(-c2nc(O)nc(-c3ccc(OCC4CC4)cc3)n2)cc1C(=O)N(C)C [Example 3-22] | 6900
42 | CCCCNC(=O)c1cc(-c2nc(O)nc(-c3ccc(OCC4CC4)cc3)n2)c(Cl)cc1C [Example 3-23] | 41

Each compound was assayed on prostaglandins in guinea pig secondary aqueous humor (assay: Effect on prostaglandin composition in guinea pig aqueous humor (instillation of 0.003% ophthalmic solution, LC/MS/MS)). Conditions: 24 hr after instillation of 0.003% ophthalmic solution.
Type: in vivo, Hartley male guinea pig
Experimental: A test article was dissolved in saline containing 0.5% polysorbate80 (Fluka) and 0.003% ophthalmic solution (pH 7.0-8.0) was prepared. The test article was administered to Hartley male guinea pig by instillation of 20 μL thereof to one eye by using a micropipette. After instillation, the lacrimal part was lightly fixed by gently pressing the lower eyelid for about 15 seconds. The opposite eye was treated in the same manner. To the vehicle group was administered the medium (0.5% polysorbate-containing saline) by a method similar to that for the test article. After 23 hr from the instillation, Mydrin P (registered trade mark) 0.5% ophthalmic solution (Santen Pharmaceutical Co., Ltd., general name: tropicamide/phenylephrine hydrochloride) was dropwisely added by one drop to the both eyes of a guinea pig to cause mydriasis. The guinea pig was anesthetized with Escain (registered trade mark) inhalation anesthetics (Pfizer Inc., general name: isoflurane), the cornea of the both eyes was tapped with a 30G injection needle, and the leaked aqueous humor (primary aqueous humor) was collected. One hour later (24 hr after instillation), the guinea pig was anesthetized again with isoflurane, and the secondary aqueous humor was collected in the same manner. The concentration of prostaglandins in the secondary aqueous humor obtained from each group (4 guinea pigs, 8 eyes) was measured by the LC/MS/MS system (Ultra high performance liquid chromatography: Nexera (registered trademark) manufactured by Shimadzu Corporation, mass spectrometer: […]), and the concentration ratio of each prostaglandin concentration relative to the total of all prostaglandin concentrations was calculated.

Row | Compound | 6-keto-PGF1α (%) | PGD2 (%) | PGE2 (%) | PGF2α (%) | TXB2 (%)
43 | CC(C)Cc1ccc(-c2nc(O)nc(-c3cc(CNC(=O)C(C)(C)C)ccc3Cl)n2)cc1 [Example 1-51, N-{4-chloro-3-[4-(4-isobutylphenyl)-6-hydroxy-1,3,5-triazin-2-yl]benzyl}-2,2-dimethylpropionamide] | 21.7 | 13.2 | 50.7 | 14 | 0.4
44 | Cc1ccc(-c2nc(O)nc(-c3cc(CNC(=O)C(C)(C)C(F)(F)F)ccc3Cl)n2)cc1F [Example 1-81, N-{4-chloro-3-[4-(3-fluoro-4-methylphenyl)-6-hydroxy-1,3,5-triazin-2-yl]benzyl}-3,3,3-trifluoro-2,2-dimethylpropionamide] | 15.7 | 13.2 | 60 | 9.8 | 1.3
45 | CC(C)c1ccc(-c2nc(O)nc(-c3cc(CNC(=O)C(C)(C)C(F)(F)F)ccc3Cl)n2)cc1 [Example 1-98, N-{4-chloro-3-[4-hydroxy-6-(4-isopropylphenyl)-1,3,5-triazin-2-yl]benzyl}-3,3,3-trifluoro-2,2-dimethylpropionamide] | 31.2 | 16.3 | 38 | 14.2 | 0.3
46 | CC(C)COc1ccc(-c2nc(O)nc(-c3cc(CNC(=O)C(C)(C)C(F)(F)F)ccc3Cl)n2)cc1 [Example 1-109, N-{4-chloro-3-[4-hydroxy-6-(4-isobutoxyphenyl)-1,3,5-triazin-2-yl]benzyl}-3,3,3-trifluoro-2,2-dimethylpropionamide] | 37.5 | 18.9 | 29.5 | 14.1 | 0.1
47 | CCCOc1ccc(-c2nc(O)nc(-c3cc(CNC(=O)C(C)(C)C(F)(F)F)ccc3Cl)n2)cc1 [Example 1-122, N-{4-chloro-3-[4-hydroxy-6-(4-propoxyphenyl)-1,3,5-triazin-2-yl]benzyl}-3,3,3-trifluoro-2,2-dimethylpropionamide] | 27.7 | 23 | 37.3 | 11.7 | 0.2
48 | CC1(COc2ccc(-c3nc(O)nc(-c4cc(CNC(=O)C(C)(C)C(F)(F)F)ccc4Cl)n3)cc2)CC1 [Example 1-128, N-(4-chloro-3-{4-hydroxy-6-[4-(1-methylcyclopropylmethoxy)phenyl]-1,3,5-triazin-2-yl}benzyl)-3,3,3-trifluoro-2,2-dimethylpropionamide] | 29.7 | 19.3 | 36.2 | 13.9 | 0.8
49 | Cc1ccc(-c2nc(O)nc(-c3cc(CNC(=O)C(C)(C)C(F)(F)F)ccc3Cl)n2)cc1Cl [Example 1-129, N-{4-chloro-3-[4-(3-chloro-4-methylphenyl)-6-hydroxy-1,3,5-triazin-2-yl]benzyl}-3,3,3-trifluoro-2,2-dimethylpropionamide] | 18.1 | 9.2 | 62.5 | 10.2 | 0
